Series [1] has as its system left hippocampus (BBB opening and closure). Put plainly: 9.4 T MRI of gadolinium deposition after FUS with SonoVue in APP/PS1 and NTg mice (Example C). It counts as in vivo, mouse. The source says:
In an example, transgenic mice expressing mutant human APPK670N,M671L protein (line Tg2576) and a line of mice expressing human mutant PS1M146V protein (line 8.9) were crossed to generate offspring: doubly transgenic APP/PS1 animals and wild-type NTg littermates A total of six mice (age: 12 months, mass: 26-37 g) were used: transgenic APP/PS1 (n=3) and NTg (m=3) mice.
The experimental timeline is depicted in FIG. 17. Each mouse 180 with intact skin and skull 182 was anesthetized using 1.25-2.50% isoflurane (SurgiVet, Smiths Medical PM, Inc., Wisconsin, USA) and placed prone with its head immobilized by a stereotaxic apparatus 184 (David Kopf Instruments, Tujunga, Calif.) that included a mouse head holder, ear bars, and a gas anesthesia mask (FIG. 16). […] A degassed water-filled container 186 sealed at the bottom with a thin, acoustically and optically transparent, Saran™ Wrap (Saran, SC Johnson, Racine, Wis., USA) was placed on top of the mouse head (FIG. 16). Ultrasound coupling gel 188 was also used to eliminate any remaining impedance mismatch.
FIG. 18(A) illustrates the frontal bone 200, sagittal suture 202, lambdoid suture 204, left parietal bone 206, right parietal bone 208, and intraparietal bone 210. […] The beam axis of the transducer was aligned 2.25 mm away from the sagittal suture 202 and 2 mm away from the lambdoid suture 204 (FIG. 18(A)). The focal point was placed 3 mm beneath the top of the parietal bone of the skull (dotted line in FIG. 18(A)). In this placement, the focus of the FUS beam overlapped with the left hippocampus 212 and the left posterior cerebral artery (PCA) (FIG. 18(A)-(B)). […] After the BBB opening, gadolinium was injected and monitored with MRI (FIG. 18(C). The horizontal slices shown in FIGS. 18(B)-(C) were obtained approximately 3 mm beneath the top of the skull. […]
A vertical bore 9.4-Tesla MR scanner (Bruker Medical, Boston, Mass., USA) was used to acquire images of mouse brains in two separate sessions. […] 1-2% isoflurane was administered while the respiration rate of the mouse was monitored throughout the entire MRI procedure. […]

For series [2], the system named is left hippocampus of the mouse brain (BBB opening).
Experimental: Brown CB57-b16 type mice (Charles River Laboratories, Wilmington, Mass., USA; mass: 23 to 28 g) were used in sonication procedures. The mice were anesthetized with a mixture of ketamine (Fort Dodge Animal Health, Fort Dodge, Iowa, USA; concentration: 75 mg per kg of body mass) and xylazine (Ben Venue Laboratories, Bedford, Ohio, USA; concentration: 3.75 mg per kg of body mass). Before sonication, the hair on the top of the mouse heads was removed using an electric trimmer and a depilatory cream. After sonication, but before MRI scanning, the mice were switched to administration of isoflurane to simplify the long anesthesia procedure necessary for MRI scanning. During all imaging procedures, the vital signs of the mice were continuously monitored.
Ultrasound gel was used further to reduce any remaining impedance mismatches between the thin plastic layer 138 and the mouse skin.
The focus of the transducer 102 was positioned inside the mouse brain using a grid positioning method, as discussed above. In this method, the sutures of the mouse skull seen through the skin were used as anatomic landmarks for targeting purposes. The location of the hippocampi were assumed relative to the sutures based on the mouse brain and known skull anatomy, as illustrated in FIG. 4. […] In CB57-b16 type mice, these were the sutures that could be clearly seen through the skin.
Ultrasound contrast medium was administered for transport across the BBB. A bolus of 10 μL (approximately 0.4 mL/kg) of ultrasound contrast agent (Optison) that contained microbubbles (mean diameter: 3.0 to 4.5 μm: concentration: 5.0 to 8.0×108 bubbles per mL) was injected into the right femoral vein of the mouse approximately 15 minutes before sonication (Table 1). Pulsed-wave FUS (burst rate: 10 Hz; burst duration: 20 ms; duty cycle: 20%; acoustic pressures at the focus: 2.0, 2.5 and 2.7 MPa) was then applied in a series of five shots lasting 30 seconds each with a 30 second delay between each shot. The FUS sonication procedure was performed once in each mouse brain. […]

Each structure is given as a SMILES string.

As to `[Gd]` [gadolinium], the “Contrast enhancement on MR images, day 1” value in series [1] (0.64 MPa, 25 μl SonoVue, scans 90 min post-sonication, 90 min post-gadolinium injection (0.75 ml IP)) was “the entire left hippocampus and some of its surrounding regions were contrast-enhanced”. The “Area and degree of contrast enhancement, day 2” value in series [1] (0.64 MPa, 25 μl SonoVue, scans 22 hours post-sonication, second gadolinium injection, compared with day 1) was “significantly reduced”. Moreover, the “Residual gadolinium in pre-gadolinium T1 and T2-weighted images” value in series [1] (before the day 2 scan (22 hours post-sonication)) was “no residual gadolinium”. Besides, the “Contrast enhancement / permeation on T1 MRI scans” value in series [2] is “eventually encompassing the entire left hippocampus”. In addition, in series [2] (in vivo, ip), the “Contrast enhancement / BBB opening on T1 MRI scans” value is “highly localized opening of the BBB near the PCA” and the “Contrast enhancement on T1 MRI scans” value is “no contrast enhancement was observed”.

The values above are taken from patent US20090005711A1, “Systems and methods for opening of the blood-brain barrier of a subject using ultrasound” (priority 2005, published 2009).
